Consider five molecules from US20050215433A1, “Aromatic fluid as agricultural solvent” (priority 2004, published 2005).

Common to all, as to assay type: physicochemical
Data set [1] is described as follows: Kauri Butanol Value, variation of ASTM D-1133-02. As to conditions: 20 grams kauri-butanol solution titrated with the solvent. As for the experimental part:
Kauri Butanol Value was determined by a variation of ASTM D-1133-02. In a […] Erlenmeyer flask, 20 grams (±0.1 grams) of kauri-butanol solution was added. The flask was placed in a water bath at 20° C. (±1° C.). A 50-milliliter burette was filled with the solvent being tested. The standardized kauri-butanol solution was titrated with the solvent being tested until the end point was reached. A photocopy of the residence listings from a telephone book was used as the 10 point print sample placed directly beneath the water bath. The tester looked through the liquid at the print to observe the end point. […] The volume in milliliters of solvent added to the flask to produce turbidity was recorded. The kauri-butanol values were calculated using the following formula: Kauri-Butanol value=[65(C−B)/(A−B)]+40 (1) where A is the milliliters of toluene required to titrate 20 grams of kauri-butanol solution (the A factor should be on the certificate of analysis that accompanies the standardized kauri-butanol solution); • B is the milliliters of n-heptane-toluene blend required to titrate 20 grams of kauri butanol solution (the B factor should be on the certificate of analysis that accompanies the standardized kauri-butanol solution); and • C is the milliliters of solvent being tested that are required to titrate 20 grams of kauri-butanol solution. […]

Data set [2] in a line: Solubility of pesticide in the solvent (highest concentration without crystallization). Particulars: no crystals after seeding; for Solubility in Weight %: Bromoxynil Octanoate: pesticide Bromoxynil Octanoate dissolved in the solvent; for Solubility in Weight %: Chlorpyrifos: pesticide Chlorpyrifos dissolved in the solvent; for Solubility in Weight %: Pendimethalin: pesticide Pendimethalin dissolved in the solvent; for Solubility in Weight %: Permethrin: pesticide Permethrin dissolved in the solvent; for Solubility in Weight %: Trifluralin: pesticide Trifluralin dissolved in the solvent. As for the experimental part: Solubility was determined by adding a predetermined weight of pesticide to a vial and then adding the solvent to within 10 grams to make the appropriate concentrations. Several different concentrations were made. […] The vials were capped and inverted several times to completely dissolve the pesticide. If the pesticide was not completely dissolved, the vials were placed in a beaker filled with warm water until the pesticide dissolved. The water was not heated closer than 30° C. of the flash point of the solvent being tested. The vial was removed from the heated beaker and was left to stand for 3 hours at room temperature. The vial was then placed into a chiller, an ethylene glycol bath, if a lower temperature was desired. […] If crystals were present, the solutions in the vials were diluted, the vials were inverted several times, the vials were either heated or cooled, and the vials were checked for crystals. The vials were allowed to stand for 24 hours and were then rechecked for crystals. If crystals were still absent after 24 hours, one crystal of pesticide was added to the vial (seeding) and the vial was inverted several times to assure the crystal was dissolved. The vial was left to stand for 48 hours and rechecked for crystals. If crystals were present, the solution was diluted further and the previous steps were repeated until no crystals appeared after seeding. […] The test was started again at the beginning with higher concentrations of the pesticide in the solvent.

Data set [3] can be described thus: Mixed Aniline Point, variation of ASTM D-611-82. As to conditions: 10 milliliters aniline + 5 milliliters sample + 5 milliliters n-heptane. As for the experimental part:
For the Mixed Aniline Point, 10 milliliters of aniline was added to a test tube. The test tube was fitted with a suitable stirrer and thermometer. The thermometer was centered in the test tube and some padding was kept at the base of the stand to avoid breakage of the test tube if it slipped. […] Added to the test tube containing aniline was 5 milliliters of sample and 5 milliliters of n-heptane. The test tube was placed into a cooling bath of isopropyl alcohol and dry ice. The mixture was continuously stirred rapidly using 2 inch strokes, avoiding introduction of air bubbles. The mixture was allowed to cool below the first appearance of turbidity and the Mixed Aniline Point was recorded.

Regarding `Cc1cc(C)cc(C(C)(C)C)c1` [Example 5, 5-ter-Butyl-m-Xylene], the “Kauri-Butanol Value” in data set [1] turned out to be 66. Further, in data set [2], the “Solubility in Weight %: Bromoxynil Octanoate” value was 61 Weight %, the “Solubility in Weight %: Chlorpyrifos” value was 65 Weight %, the “Solubility in Weight %: Pendimethalin” value is reported as 35 Weight % and the “Solubility in Weight %: Permethrin” value was determined as 65 Weight %. Also, the “Solubility in Weight %: Trifluralin” value in data set [2] came out at 50 Weight %. Further, the “Mixed Aniline Point” value in data set [3] came to 28 °C.

For the molecule `CN1CCCC1=O` [Example 10, 1-Methyl-2-Pyrrilidinone], in data set [2], the “Solubility in Weight %: Bromoxynil Octanoate” value is recorded as 75 Weight %, the “Solubility in Weight %: Chlorpyrifos” value is 80 Weight %, the “Solubility in Weight %: Pendimethalin” value came to 55 Weight % and the “Solubility in Weight %: Permethrin” value was 75 Weight %. Moreover, the “Solubility in Weight %: Trifluralin” value in data set [2] was determined as 70 Weight %.

Take `CCCCCCCCCCCCc1ccccc1` [Example 17, Dodecyl Benzene]: the “Kauri-Butanol Value” in data set [1] is on record as 36. Moreover, in data set [2], the “Solubility in Weight %: Bromoxynil Octanoate” value came to 40 Weight %, the “Solubility in Weight %: Chlorpyrifos” value came out at 50 Weight %, the “Solubility in Weight %: Pendimethalin” value was 20 Weight % and the “Solubility in Weight %: Permethrin” value is 45 Weight %. In addition, the “Solubility in Weight %: Trifluralin” value in data set [2] stood at 25 Weight %. Also, the “Mixed Aniline Point” value in data set [3] came to 43 °C.

Regarding Dipentylindan [Example 12], in data set [2], the “Solubility in Weight %: Bromoxynil Octanoate” value was 25 Weight %, the “Solubility in Weight %: Chlorpyrifos” value is on record as 40 Weight %, the “Solubility in Weight %: Pendimethalin” value was <15 Weight % and the “Solubility in Weight %: Permethrin” value is reported as 50 Weight %. The “Solubility in Weight %: Trifluralin” value in data set [2] is on record as <15 Weight %.

With Monopentylindan [Example 11], in data set [2], the “Solubility in Weight %: Bromoxynil Octanoate” value is 50 Weight %, the “Solubility in Weight %: Chlorpyrifos” value stood at 60 Weight %, the “Solubility in Weight %: Pendimethalin” value stood at 25 Weight % and the “Solubility in Weight %: Permethrin” value came to 65 Weight %. Also, in data set [2], the “Solubility in Weight %: Trifluralin” value is on record as 35 Weight %.
